Data reported in PMC7354492, “Drugs Commonly Applied to Kidney Patients May Compromise Renal Tubular Uremic Toxins Excretion” (Toxins, 2020).
Structures can show the parent of a compound that is named as a salt. Where two headings read alike, the source gives them in different places.

T1: OAT1 (Homo sapiens, UniProt Q4U2R8)
T1 sequence (Q4U2R8 1-563): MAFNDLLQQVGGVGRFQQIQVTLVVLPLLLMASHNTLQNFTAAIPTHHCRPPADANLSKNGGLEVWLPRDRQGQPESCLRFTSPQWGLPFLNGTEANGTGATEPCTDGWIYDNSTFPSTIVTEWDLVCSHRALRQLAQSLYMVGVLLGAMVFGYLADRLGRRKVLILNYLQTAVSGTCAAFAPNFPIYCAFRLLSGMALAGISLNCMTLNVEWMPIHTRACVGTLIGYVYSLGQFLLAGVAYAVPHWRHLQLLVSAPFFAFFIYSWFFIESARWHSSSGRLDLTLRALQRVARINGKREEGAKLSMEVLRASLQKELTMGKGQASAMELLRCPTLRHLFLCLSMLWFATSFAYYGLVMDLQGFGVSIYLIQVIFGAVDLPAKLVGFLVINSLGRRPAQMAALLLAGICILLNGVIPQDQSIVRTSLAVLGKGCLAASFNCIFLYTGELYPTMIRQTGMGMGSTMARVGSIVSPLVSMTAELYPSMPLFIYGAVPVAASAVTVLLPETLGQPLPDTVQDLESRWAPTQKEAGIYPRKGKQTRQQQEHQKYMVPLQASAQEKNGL

B1: OAT1 (Homo sapiens) (protein)
chain: MAFNDLLQQVGGVGRFQQIQVTLVVLPLLLMASHNTLQNFTAAIPTHHCRPPADANLSKNGGLEVWLPRDRQGQPESCLRFTSPQWGLPFLNGTEANGTGATEPCTDGWIYDNSTFPSTIVTEWDLVCSHRALRQLAQSLYMVGVLLGAMVFGYLADRLGRRKVLILNYLQTAVSGTCAAFAPNFPIYCAFRLLSGMALAGISLNCMTLNVEWMPIHTRACVGTLIGYVYSLGQFLLAGVAYAVPHWRHLQLLVSAPFFAFFIYSWFFIESARWHSSSGRLDLTLRALQRVARINGKREEGAKLSMEVLRASLQKELTMGKGQASAMELLRCPTLRHLFLCLSMLWFATSFAYYGLVMDLQGFGVSIYLIQVIFGAVDLPAKLVGFLVINSLGRRPAQMAALLLAGICILLNGVIPQDQSIVRTSLAVLGKGCLAASFNCIFLYTGELYPTMIRQTGMGMGSTMARVGSIVSPLVSMTAELYPSMPLFIYGAVPVAASAVTVLLPETLGQPLPDTVQDLESRWAPTQKEAGIYPRKGKQTRQQQEHQKYMVPLQASAQEKNGL

Tests used:
[1] = system: OAT1; details: read-out: IC50 (uric acid uptake, OAT1); OAT1-expressing Flp-HEK293 cells; ref Sato et al. [58]; cited from earlier work
[2] = biological target: T1, OAT1; experiment: OAT1-mediated fluorescein uptake inhibition assay in ciPTEC-OAT1; details: for lowest drug concentration with statistically significant decrease (p<0.05) of % fluorescein uptake, with IS: co-incubation with IS; for lowest drug concentration with statistically significant decrease (p<0.05) of % fluorescein uptake, with IS / lowest drug concentration with statistically significant decrease (p<0.05) of % fluorescein uptake, with KA / lowest drug concentration with statistically significant decrease (p<0.05) of % fluorescein uptake, with PCS: reference = toxin alone; for lowest drug concentration with statistically significant decrease (p<0.05) of % fluorescein uptake, with KA: co-incubation with KA; for lowest drug concentration with statistically significant decrease (p<0.05) of % fluorescein uptake, with PCS: co-incubation with PCS; for IC50 at 10 min: human, ciPTEC-OAT1 mature monolayers, pH 7.4, probe fluorescein 1 µM
Experimental: Uptake arrest was performed by washing with ice-cold HBSS (Life Technologies Europe BV, Roskilde, Denmark), and then the cells were lysed by 100 µL 0.1 M NaOH for 10 min, at room temperature and under mild shaking. […] Background values were subtracted and normalized arbitrary fluorescence unit (AFU) data were converted into percentage (%).
In order to replicate the uremic condition present in CKD patients, a specific mixture of eight known anionic PBUTs (Table S1), predominantly derived from endogenous metabolism pathways and food digestion in the gut, was used at concentrations corresponding to those found in patients.
All data are expressed as mean ± standard deviation (SD) of at least three separate experiments. Inhibition data were fitted according to one-site total binding saturation curve using non-linear regression analysis ((inhibitor) vs. response-variable slope) and Vmax values were calculated according to Michaelis-Menten kinetics using non-linear regression analysis. […] All experiments were performed four times.

[3] = cited from earlier work
[4] = system: plasma proteins; details: cited from earlier work; for Protein Binding (%): ref www.drugbank.ca; for bound to plasma proteins: PBUTs in plasma, ref 68 (IS, PCS), ref 69 (KA)
[5] = cited from earlier work; for T1/2 (pharmacologic half life): ref 44 (pravastatin: ref 45)
[6] = Human clearance and half life of tested drugs; format: in vivo
[7] = biological target: T1, OAT1; details: read-out: IC50 of uremic toxin in ciPTEC-OAT1 system; cited from earlier work
[8] = substrate: O=C1OC2(c3ccc(O)cc3Oc3cc(O)ccc32)c2ccccc21; experiment: cells, lysate or membranes; details: pH 7.4; 37.0 °C
[9] = co-incubation with UTox, lowest drug concentration

Row | Molecule | IC50 [2] | Therapeutic Concentrations ([3]; ref 44 (pravastatin: ref 45)) | Protein Binding (%) [4] | Renal CL ([5]; human) | T1/2 (pharmacologic half life) [5] | Renal Clearance (% of Total CL) [6] | further results
1 | CCCCC(=O)N(Cc1ccc(-c2ccccc2-c2nnn[nH]2)cc1)[C@H](C(=O)O)C(C)C [Valsartan, valsartan] | 11.5 ± 3.5 µM | 2 to 14 µM | 94–97% | 0.14 mL/min/kg | 6–9 h | 29% | IC50 [1]: 16 µM; Percentage (%) Fluorescein Uptake at the Lowest Drug Concentration in the presence of UTox [2]: 24.7 ± 4.5%
2 | O=C(O)[C@H]1O[C@@H](Oc2c[nH]c3ccccc23)[C@H](O)[C@@H](O)[C@@H]1O [Indoxyl-β-D-glucoronide, indoxyl-β-D-glucoronide] |  |  |  |  |  |  | IC50 [7]: 492 ± 68 µM
3 | CN/C(=N/CCSCc1nc[nH]c1C)NC#N [Cimetidine] | 888 ± 198 µM | 1 to 16 µM | 20% | 7.9 mL/min/kg | 1.5–4 h | 97% | 
4 | CC[C@H](C)C(=O)O[C@H]1C[C@H](O)C=C2C=C[C@H](C)[C@H](CC[C@@H](O)C[C@@H](O)CC(=O)O)[C@H]21 [Pravastatin, pravastatin] | 13.8 ± 8.5 µM | 0.08 to 0.3 µM | 60% | 6.3 mL/min/kg | 1–2.5 h | 45% | lowest drug concentration with statistically significant decrease (p<0.05) of % fluorescein uptake, with IS [2]: 5 µM; lowest drug concentration with statistically significant decrease (p<0.05) of % fluorescein uptake, with KA [2]: 5 µM; lowest drug concentration with statistically significant decrease (p<0.05) of % fluorescein uptake, with PCS [2]: 1 µM; Percentage (%) Fluorescein Uptake at the Lowest Drug Concentration in the presence of UTox [2, 9]: 27.8 ± 2.6%; IC50 at 10 min [2]: 23.2 ± 8.3 µM; Therapeutic Concentrations ([3]; second value in cell): 0.43 µM
5 | CCC(C)(C)C(=O)O[C@H]1C[C@@H](C)C=C2C=C[C@H](C)[C@H](CC[C@@H]3C[C@@H](O)CC(=O)O3)[C@H]21 [Simvastatin, simvastatin] |  |  |  |  | 2 h | 13% | 
6 | C[C@H](N[C@@H](CCc1ccccc1)C(=O)O)C(=O)N1CCC[C@H]1C(=O)O [Enalaprilate, enalaprilate] |  | 0.04 to 0.4 µM | 50% | 1.6 mL/min/kg | 8–11 h | 100% | inhibition of human OAT1 (in words) ([2]; captopril and enalaprilate only at high concentrations with no therapeutic relevance): inhibited; Total CL ([5]; human): 1.6 mL/min/kg
7 | NCCCC[C@H](N[C@@H](CCc1ccccc1)C(=O)O)C(=O)N1CCC[C@H]1C(=O)O [Lisinopril, lisinopril] |  | 0.01 to 0.16 µM | negligible |  |  | 100% | 
8 | Cc1ccc(OS(=O)(=O)O)cc1 [p-Cresylsulfate, p-cresylsulfate] |  |  |  |  |  |  | IC50 [7]: 79 ± 14 µM; bound to plasma proteins [4]: 90–95%
9 | O=C(O)c1cc(=O)c2ccccc2[nH]1 [Kynurenic acid, kynurenic acid] |  |  |  |  |  |  | bound to plasma proteins [4]: 70%
10 | O=S(=O)(O)Oc1c[nH]c2ccccc12 [Indoxyl sulfate] |  |  |  |  |  |  | bound to plasma proteins [4]: 90–95%
11 | NS(=O)(=O)c1cc(C(=O)O)c(NCc2ccco2)cc1Cl [Furosemide, furosemide] |  | 6 to 30 µM |  |  |  |  | 
12 | CCCCc1nc(Cl)c(CO)n1Cc1ccc(-c2ccccc2-c2nn[nH]n2)cc1 [Losartan, losartan] | 8.6 ± 2.5 µM | 0.5 to 1.5 µM | 99% | 0.9 mL/min/kg | 1.5–2 h | 11% | IC50 [1]: 12 µM; lowest drug concentration with statistically significant decrease (p<0.05) of % fluorescein uptake, with IS [2]: 1 µM; lowest drug concentration with statistically significant decrease (p<0.05) of % fluorescein uptake, with KA [2]: 5 µM; lowest drug concentration with statistically significant decrease (p<0.05) of % fluorescein uptake, with PCS [2]: 1 µM; Percentage (%) Fluorescein Uptake at the Lowest Drug Concentration in the presence of UTox [2, 9]: 23.5 ± 3.5%; IC50 at 10 min [2]: 3.1 ± 0.7 µM
13 | C[C@H](CS)C(=O)N1CCC[C@H]1C(=O)O [Captopril, captopril] | 2020 ± 465 µM | 0.2 to 5 µM |  |  |  |  | 
14 | Cc1ccc(O[C@@H]2O[C@H](C(=O)O)[C@@H](O)[C@H](O)[C@H]2O)cc1 [p-Cresylglucuronide, p-cresylglucuronide] |  |  |  |  |  |  | IC50 [7]: 2650 ± 922 µM
15 | B1 |  |  |  |  |  |  | Km [8]: 0.93 ± 0.09 µM
